# Measured values as given in patent publication US11332485B2, “Penicillin-binding protein inhibitors” (priority 2017, dated 2022).
# Key:
# Test in all cases: Bocillin FL competition binding assay (SDS-PAGE gel, membrane PBPs)
# Details in all cases: 15 min. pre-incubation, membrane protein extracts, SDS-PAGE fluorescence scan
# [1] = molecular target: T1, E. coli PBP3 (Escherichia coli, UniProt P0AD68)
# T1 construct: 100 μg's of total membrane protein extracts containing PBPs; endogenous in cells; host or cells: Escherichia coli K12 membrane fraction
# T1 sequence (P0AD68 1-577): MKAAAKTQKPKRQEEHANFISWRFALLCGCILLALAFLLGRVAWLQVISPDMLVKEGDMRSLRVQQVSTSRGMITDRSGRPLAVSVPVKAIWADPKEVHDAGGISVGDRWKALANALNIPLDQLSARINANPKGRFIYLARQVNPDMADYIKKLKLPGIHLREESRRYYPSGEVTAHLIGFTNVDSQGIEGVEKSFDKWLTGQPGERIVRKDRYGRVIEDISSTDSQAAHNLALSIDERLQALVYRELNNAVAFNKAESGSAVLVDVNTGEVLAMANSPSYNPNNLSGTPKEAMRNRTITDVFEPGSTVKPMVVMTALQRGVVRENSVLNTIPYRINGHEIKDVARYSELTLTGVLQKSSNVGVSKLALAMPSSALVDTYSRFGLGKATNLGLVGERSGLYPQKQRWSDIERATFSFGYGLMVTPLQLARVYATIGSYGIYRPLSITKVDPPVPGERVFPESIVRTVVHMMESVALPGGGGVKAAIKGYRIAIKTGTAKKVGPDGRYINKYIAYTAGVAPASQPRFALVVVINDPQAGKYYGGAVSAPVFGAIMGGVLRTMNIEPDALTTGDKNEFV
# Experimental: (§1) To determine the ability of test compounds to bind Penicillin Binding Proteins (PBPs), a competition binding assay using Bocillin FL (fluorescent derivative of penicillin V) was adapted from the classical method used to assess PBP potency of beta-lactams.
# (§2) Penicillin binding proteins were isolated from Escherichia coli K12 by growth of Escherichia coli K12 from a single colony in 4 L of Luria-Bertani (LB) broth at 35° C. and 250 rpm to an OD600 nm of 0.5. The cells were harvested by centrifugation at 7,000×g for 10 min. at 4° C. Cells were resuspended and washed in 50 mM potassium phosphate pH 7.5. The cells were re-suspended in sonication buffer [50 mM Tris-HCl pH 7.5, 1 mM MgCl2, 1 mM beta-mercaptoethanol, and 5 μg/mL DNAse I] and sonicated by 4 passes of 30 seconds at 45 W on ice. The sample was clarified by centrifugation at 3,000×g to remove cell debris and unbroken cells and supernatant containing the membrane proteins was retained. The membrane proteins including the PBPs were further purified from soluble constituents by an ultracentrifugation step at 100,000×g for 30 min. at 4° C. The membrane proteins are washed twice with 10 mM sodium phosphate pH 7, resuspended in a volume of 5 mL, quantitated by BCA assay, adjusted to […] and frozen at −80° C. until use.
# (§3) The adapted Bocillin FL competition binding assay described herein incorporates a 15 min. pre-incubation of test compound with isolated PBPs to attempt to balance the difference in mechanism of inhibition between beta-lactams (largely irreversible covalent bond to active site Serine) and the boron-containing PBP inhibitor test compounds (reversible covalent bond to active site Serine). Briefly, 50 μL reactions consisted of 100 μg's of total membrane protein extracts containing PBPs incubated with a dilution series of test compound ranging from 0.005 μg/mL to 2,480 μg/mL in 10 mM sodium phosphate pH7 containing 350 mM NaCl. Thirty minute reactions at 35° C. were initiated by addition of […] Bocillin FL, quenched by addition of SDS-PAGE loading buffer containing sodium dodecyl sulfate (SDS) and heated for 15 minutes at 95° C. to denature proteins in preparation for SDS-polyacrylamide gel electrophoresis. The Bocillin FL labeled PBPs are then separated by SDS-PAGE in Novex NuPage 10% Bis-Tris pre-cast gels (Invitrogen). The SDS-PAGE gel, post-electrophoresis, is then washed in water to remove excess SDS for 10 minutes at room temperature and placed on the scanning bed of a GE Healthcare/Amersham Biosciences Storm 860 fluorescence scanner. […] Effective PBP inhibitors are detected by a reduction in Bocillin FL labeling of the particular PBP over the dose range of test compound in a dose-responsive manner. […]
# [2] = molecular target: T2, E. coli K12 PBP1a (Escherichia coli, UniProt P02918)
# T2 construct: 100 μg's of total membrane protein extracts containing PBPs; endogenous in cells; host or cells: Escherichia coli K12 membrane fraction
# T2 sequence (P02918 whole entry): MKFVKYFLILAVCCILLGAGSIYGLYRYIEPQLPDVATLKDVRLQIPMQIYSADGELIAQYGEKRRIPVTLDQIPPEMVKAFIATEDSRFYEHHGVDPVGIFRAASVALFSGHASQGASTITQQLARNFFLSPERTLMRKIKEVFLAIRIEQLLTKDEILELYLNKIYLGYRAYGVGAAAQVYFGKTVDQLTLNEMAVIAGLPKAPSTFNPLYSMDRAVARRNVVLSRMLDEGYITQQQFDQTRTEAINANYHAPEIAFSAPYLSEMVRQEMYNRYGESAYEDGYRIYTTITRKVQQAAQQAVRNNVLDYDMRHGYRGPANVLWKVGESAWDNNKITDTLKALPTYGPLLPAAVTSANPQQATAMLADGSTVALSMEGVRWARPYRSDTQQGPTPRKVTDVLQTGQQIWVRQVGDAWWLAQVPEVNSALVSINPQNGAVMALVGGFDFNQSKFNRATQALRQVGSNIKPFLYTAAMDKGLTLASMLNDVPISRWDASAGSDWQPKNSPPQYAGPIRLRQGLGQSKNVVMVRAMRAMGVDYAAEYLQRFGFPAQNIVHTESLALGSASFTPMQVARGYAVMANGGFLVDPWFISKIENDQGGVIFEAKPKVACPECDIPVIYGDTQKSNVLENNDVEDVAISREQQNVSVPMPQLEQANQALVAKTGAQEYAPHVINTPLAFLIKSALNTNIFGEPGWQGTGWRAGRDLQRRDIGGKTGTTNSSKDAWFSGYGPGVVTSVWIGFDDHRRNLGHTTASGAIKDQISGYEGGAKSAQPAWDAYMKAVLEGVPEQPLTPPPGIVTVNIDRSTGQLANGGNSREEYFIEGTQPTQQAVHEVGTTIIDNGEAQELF
# Experimental: as §1, §2, §3
# [3] = tested on: E. coli PBP1b; set-up: species or system Escherichia coli
# Experimental: as §1
# Penicillin binding proteins were isolated from Escherichia coli K12 by growth of Escherichia coli K12 from a single colony in 4 L of Luria-Bertani (LB) broth at 35° C. and 250 rpm to an OD600 nm of 0.5. The cells were harvested by centrifugation at 7,000×g for 10 min. at 4° C. Cells were resuspended and washed in 50 mM potassium phosphate pH 7.5. […] The membrane proteins are washed twice with 10 mM sodium phosphate pH 7, resuspended in a volume of 5 mL, quantitated by BCA assay, adjusted to 10 μg/mL and frozen at −80° C. until use.
# The adapted Bocillin FL competition binding assay described herein incorporates a 15 min. pre-incubation of test compound with isolated PBPs to attempt to balance the difference in mechanism of inhibition between beta-lactams (largely irreversible covalent bond to active site Serine) and the boron-containing PBP inhibitor test compounds (reversible covalent bond to active site Serine). […] The SDS-PAGE gel, post-electrophoresis, is then washed in water to remove excess SDS for 10 minutes at room temperature and placed on the scanning bed of a GE Healthcare/Amersham Biosciences Storm 860 fluorescence scanner. […]
smiles,measurement,setting,value
"CCN1CCN(C(=O)NC(C(=O)N[C@H]2Cc3cccc(C(=O)O)c3OB2O)c2csc(N)n2)C(=O)C1=O (stereo partly drawn) [Example 12, (3R)-3-(2-(2-aminothiazol-4-yl)-2-(4-ethyl-2,3-dioxopiperazine-1-carboxamido)acetamido)-2-hydroxy-3,4-dihydro-2H-benzo[e][1,2]oxaborinine-8-carboxylic acid]",E. coli PBP3 Potency,[1],A (A represents a potency of >1000 μg/mL)
same,E. coliK12 PBP1a Potency,[2],B (B represents a potency between 64 and 1000 μg/mL inclusive)
same,E. coli PBP1b Potency,[3],C (C represents a potency of <64 μg/mL)
